Holding throughout (format): ADME
Data set [1] is described as follows: The drug is tested on Alloscardovia omnicolens strain: DSM21503 for biotransformation under anaerobic condition. The drug concentrations were measured over 6 timepoints collected between 0 and 12 hours of incubation by liquid-chromatography-coupled mass spectrometry (LC–MS). On the set-up: dose 5 uM, timepoint 0, 1.5, 3, 6, 9, 12 hours. Particulars: 5 µM.
Data set [2] can be described thus: The drug is tested on Bifidobacterium longum strain: DSM20088 for biotransformation under anaerobic condition. The drug concentrations were measured over 6 timepoints collected between 0 and 12 hours of incubation by liquid-chromatography-coupled mass spectrometry (LC–MS). More on the design: dose 5 uM, timepoint 0, 1.5, 3, 6, 9, 12 hours. Particulars: 5 µM.
The nature of data set [3]: The drug is tested on Bacteroides fragilis strain: DSM2151 for biotransformation under anaerobic condition. The drug concentrations were measured over 6 timepoints collected between 0 and 12 hours of incubation by liquid-chromatography-coupled mass spectrometry (LC–MS). The following applies: 5 µM. On the set-up: dose 5 uM, timepoint 0, 1.5, 3, 6, 9, 12 hours.
A short description of data set [4]: The drug is tested on Bacteroides ovatus strain: ATCC 8483 for biotransformation under anaerobic condition. The drug concentrations were measured over 6 timepoints collected between 0 and 12 hours of incubation by liquid-chromatography-coupled mass spectrometry (LC–MS). On the set-up: dose 5 uM, timepoint 0, 1.5, 3, 6, 9, 12 hours. The following applies: 5 µM.

Data set [5] in a line: The drug is tested on Bacteroides uniformis strain: DSM6597 for biotransformation under anaerobic condition. The drug concentrations were measured over 6 timepoints collected between 0 and 12 hours of incubation by liquid-chromatography-coupled mass spectrometry (LC–MS). More on the design: dose 5 uM, timepoint 0, 1.5, 3, 6, 9, 12 hours. The following applies: 5 µM.
The nature of data set [6]: The drug is tested on Bacteroides vulgatus strain: DSM1447 for biotransformation under anaerobic condition. The drug concentrations were measured over 6 timepoints collected between 0 and 12 hours of incubation by liquid-chromatography-coupled mass spectrometry (LC–MS). The following applies: phocaeicola vulgatus, 5 µM. On the set-up: dose 5 uM, timepoint 0, 1.5, 3, 6, 9, 12 hours.

Data set [7] in a line: The drug is tested on Odoribacter splanchnicus strain: DSM20712 for biotransformation under anaerobic condition. The drug concentrations were measured over 6 timepoints collected between 0 and 12 hours of incubation by liquid-chromatography-coupled mass spectrometry (LC–MS). On the set-up: dose 5 uM, timepoint 0, 1.5, 3, 6, 9, 12 hours. The following applies: 5 µM.
Data set [8] in a line: The drug is tested on Coprococcus comes strain: ATCC27758 for biotransformation under anaerobic condition. The drug concentrations were measured over 6 timepoints collected between 0 and 12 hours of incubation by liquid-chromatography-coupled mass spectrometry (LC–MS). Particulars: 5 µM. More on the design: dose 5 uM, timepoint 0, 1.5, 3, 6, 9, 12 hours.
A short description of data set [9]: The drug is tested on Eubacterium eligens strain: DSM3376 for biotransformation under anaerobic condition. The drug concentrations were measured over 6 timepoints collected between 0 and 12 hours of incubation by liquid-chromatography-coupled mass spectrometry (LC–MS). On the set-up: dose 5 uM, timepoint 0, 1.5, 3, 6, 9, 12 hours. The following applies: lachnospira eligens, 5 µM.

Data set [10] in a line: The drug is tested on Eubacterium hallii strain: DSM3353 for biotransformation under anaerobic condition. The drug concentrations were measured over 6 timepoints collected between 0 and 12 hours of incubation by liquid-chromatography-coupled mass spectrometry (LC–MS). On the set-up: dose 5 uM, timepoint 0, 1.5, 3, 6, 9, 12 hours. The following applies: anaerobutyricum hallii, 5 µM.

Data set [11] can be described thus: The drug is tested on Eubacterium rectale strain: DSM17629 for biotransformation under anaerobic condition. The drug concentrations were measured over 6 timepoints collected between 0 and 12 hours of incubation by liquid-chromatography-coupled mass spectrometry (LC–MS). More on the design: dose 5 uM, timepoint 0, 1.5, 3, 6, 9, 12 hours. Particulars: agathobacter rectalis, 5 µM.

Data set [12] is described as follows: The drug is tested on Lactobacillus ruminis strain: ATCC25644 for biotransformation under anaerobic condition. The drug concentrations were measured over 6 timepoints collected between 0 and 12 hours of incubation by liquid-chromatography-coupled mass spectrometry (LC–MS). On the set-up: dose 5 uM, timepoint 0, 1.5, 3, 6, 9, 12 hours. The following applies: ligilactobacillus ruminis, 5 µM.

A short description of data set [13]: The drug is tested on Enterococcus faecalis strain: ATCC29212 for biotransformation under anaerobic condition. The drug concentrations were measured over 6 timepoints collected between 0 and 12 hours of incubation by liquid-chromatography-coupled mass spectrometry (LC–MS). More on the design: dose 5 uM, timepoint 0, 1.5, 3, 6, 9, 12 hours. The following applies: 5 µM.

The nature of data set [14]: The drug is tested on Alloscardovia omnicolens strain: DSM21503 for biotransformation under microaerobic condition. The drug concentrations were measured over 6 timepoints collected between 0 and 12 hours of incubation by liquid-chromatography-coupled mass spectrometry (LC–MS). Particulars: 5 µM. On the set-up: dose 5 uM, timepoint 0, 1.5, 3, 6, 9, 12 hours.
A short description of data set [15]: The drug is tested on Lactobacillus ruminis strain: ATCC25644 for biotransformation under microaerobic condition. The drug concentrations were measured over 6 timepoints collected between 0 and 12 hours of incubation by liquid-chromatography-coupled mass spectrometry (LC–MS). Particulars: ligilactobacillus ruminis, 5 µM. On the set-up: dose 5 uM, timepoint 0, 1.5, 3, 6, 9, 12 hours.

A short description of data set [16]: The drug is tested on Enterococcus faecalis strain: ATCC29212 for biotransformation under microaerobic condition. The drug concentrations were measured over 6 timepoints collected between 0 and 12 hours of incubation by liquid-chromatography-coupled mass spectrometry (LC–MS). On the set-up: dose 5 uM, timepoint 0, 1.5, 3, 6, 9, 12 hours. Particulars: 5 µM.
Data set [17] can be described thus: The drug is tested on the gut metagenome community of A-08 with ENA study accession number: PRJEB31790 for biotransformation under anaerobic condition. The drug concentrations were measured over 7 timepoints collected between 0 and 12 hours of incubation by liquid-chromatography-coupled mass spectrometry (LC–MS). More on the design: dose 5 uM, timepoint 0, 0.75, 1.5, 3, 6, 9, 12 hours. Particulars: 5 µM.

The nature of data set [18]: The drug is tested on the gut metagenome community of P-02 with ENA study accession number: PRJEB31790 for biotransformation under anaerobic condition. The drug concentrations were measured over 7 timepoints collected between 0 and 12 hours of incubation by liquid-chromatography-coupled mass spectrometry (LC–MS). More on the design: dose 5 uM, timepoint 0, 0.75, 1.5, 3, 6, 9, 12 hours. The following applies: 5 µM.

Data set [19] can be described thus: The drug is tested on the gut metagenome community of P-03 with ENA study accession number: PRJEB31790 for biotransformation under anaerobic condition. The drug concentrations were measured over 7 timepoints collected between 0 and 12 hours of incubation by liquid-chromatography-coupled mass spectrometry (LC–MS). Particulars: 5 µM. On the set-up: dose 5 uM, timepoint 0, 0.75, 1.5, 3, 6, 9, 12 hours.

The nature of data set [20]: The drug is tested on the gut metagenome community of T-05 with ENA study accession number: PRJEB31790 for biotransformation under anaerobic condition. The drug concentrations were measured over 7 timepoints collected between 0 and 12 hours of incubation by liquid-chromatography-coupled mass spectrometry (LC–MS). On the set-up: dose 5 uM, timepoint 0, 0.75, 1.5, 3, 6, 9, 12 hours. The following applies: 5 µM.

Data set [21] can be described thus: The drug is tested on the gut metagenome community of A-03 with ENA study accession number: PRJEB31790 for biotransformation under microaerobic condition. The drug concentrations were measured over 7 timepoints collected between 0 and 12 hours of incubation by liquid-chromatography-coupled mass spectrometry (LC–MS). More on the design: dose 5 uM, timepoint 0, 0.75, 1.5, 3, 6, 9, 12 hours. The following applies: 5 µM.

Data set [22] is described as follows: The drug is tested on the gut metagenome community of A-06 with ENA study accession number: PRJEB31790 for biotransformation under microaerobic condition. The drug concentrations were measured over 7 timepoints collected between 0 and 12 hours of incubation by liquid-chromatography-coupled mass spectrometry (LC–MS). Particulars: 5 µM. On the set-up: dose 5 uM, timepoint 0, 0.75, 1.5, 3, 6, 9, 12 hours.

The nature of data set [23]: The drug is tested on the gut metagenome community of A-08 with ENA study accession number: PRJEB31790 for biotransformation under microaerobic condition. The drug concentrations were measured over 7 timepoints collected between 0 and 12 hours of incubation by liquid-chromatography-coupled mass spectrometry (LC–MS). More on the design: dose 5 uM, timepoint 0, 0.75, 1.5, 3, 6, 9, 12 hours. Particulars: 5 µM.

Data set [24] is described as follows: The drug is tested on the gut metagenome community of T-05 with ENA study accession number: PRJEB31790 for biotransformation under microaerobic condition. The drug concentrations were measured over 7 timepoints collected between 0 and 12 hours of incubation by liquid-chromatography-coupled mass spectrometry (LC–MS). On the set-up: dose 5 uM, timepoint 0, 0.75, 1.5, 3, 6, 9, 12 hours. Particulars: 5 µM.

We go through three compounds from ChEMBL document CHEMBL5724806, “Unraveling interindividual differences and functional consequences of gut microbial metabolism of immunosuppressants” (2024).

With `CNC(=C[N+](=O)[O-])NCCSCc1ccc(CN(C)C)o1` [RANITIDINE], the “Bacterial Biotransformation” value is “Compound NOT metabolized” in data set [1]; “Compound NOT metabolized” in data set [2]; “Compound NOT metabolized” in [3]; “Compound metabolized” in data set [4]; “Compound NOT metabolized” in data set [5]; “Compound NOT metabolized” in data set [6]. Besides, the “Bacterial Biotransformation” value was “Compound NOT metabolized” in data set [7]; “Compound NOT metabolized” in [8]; “Compound metabolized” in data set [9]; “Compound NOT metabolized” in data set [10]; “Compound NOT metabolized” in data set [11]; “Compound NOT metabolized” in data set [12]. The “Bacterial Biotransformation” value in data set [13] is “Compound NOT metabolized”; in data set [14] it was “Compound NOT metabolized”; in data set [15] it was “Compound NOT metabolized”; in data set [16], “Compound metabolized”; in data set [17], “Compound NOT metabolized”; in [18] it was “Compound metabolized”. Besides, the “Bacterial Biotransformation” value in data set [19] is given as “Compound metabolized”; in [20] it was “Compound NOT metabolized”; in data set [21], “Compound NOT metabolized”; in data set [22] it was “Compound metabolized”; in [23], “Compound metabolized”; in data set [24] it was “Compound NOT metabolized”.
Take `CCC(C)(C)C(=O)O[C@H]1C[C@@H](C)C=C2C=C[C@H](C)[C@H](CC[C@@H]3C[C@@H](O)CC(=O)O3)[C@H]21` [SIMVASTATIN]: the “Bacterial Biotransformation” value in data set [1], in [2], in data set [3], in [4], in [5] and in [6] was “Compound NOT metabolized” each time. The “Bacterial Biotransformation” value is recorded as “Compound NOT metabolized” in data set [7]; “Compound metabolized” in data set [8]; “Compound NOT metabolized” in data set [9]; “Compound NOT metabolized” in [10]; “Compound NOT metabolized” in [11]; “Compound NOT metabolized” in [12]. Moreover, the “Bacterial Biotransformation” value is “Compound NOT metabolized” in data set [13]; “Compound NOT metabolized” in [14]; “Compound NOT metabolized” in data set [15]; “Compound metabolized” in data set [16]; “Compound NOT metabolized” in data set [17]; “Compound NOT metabolized” in data set [18]. Further, the “Bacterial Biotransformation” value in data set [19], in [20], in [21], in data set [22], in data set [23] and in [24] was “Compound NOT metabolized” each time.
For `CO[C@H]1C[C@@H]2CC[C@@H](C)[C@@](O)(O2)C(=O)C(=O)N2CCCC[C@H]2C(=O)O[C@H]([C@H](C)C[C@@H]2CC[C@@H](O)[C@H](OC)C2)CC(=O)[C@H](C)/C=C(\C)[C@@H](O)[C@@H](OC)C(=O)[C@H](C)C[C@H](C)/C=C/C=C/C=C/1C` [SIROLIMUS], the “Bacterial Biotransformation” value is given as “Compound metabolized” in data set [1]; “Compound metabolized” in data set [2]; “Compound NOT metabolized” in data set [3]; “Compound NOT metabolized” in data set [4]; “Compound metabolized” in data set [5]; “Compound NOT metabolized” in data set [6]. In addition, the “Bacterial Biotransformation” value in data set [7] is “Compound NOT metabolized”; in [8], “Compound metabolized”; in data set [9], “Compound metabolized”; in data set [10], “Compound metabolized”; in data set [11], “Compound NOT metabolized”; in data set [12], “Compound NOT metabolized”. Besides, the “Bacterial Biotransformation” value was “Compound metabolized” in data set [13]; “Compound NOT metabolized” in data set [14]; “Compound NOT metabolized” in [15]; “Compound metabolized” in [16]; “Compound metabolized” in [17]; “Compound NOT metabolized” in data set [18]. Besides, the “Bacterial Biotransformation” value in data set [19] is reported as “Compound NOT metabolized”; in [20], “Compound NOT metabolized”; in data set [21] it was “Compound metabolized”; in [22] it was “Compound metabolized”; in data set [23], “Compound metabolized”; in data set [24], “Compound NOT metabolized”.
